# Key:
# Assay type in all cases: cell-based, human
# [1] = system: cell cycle regulating proteins in MDAPCa2b cells; assay: Western blot of cell cycle regulating proteins, MDAPCa2b; conditions: for CDK2, normalized fold change after GAPDH calibration / CDK4, normalized fold change after GAPDH calibration / CDK6, normalized fold change after GAPDH calibration / Cyclin A, normalized fold change after GAPDH calibration / Cyclin B1, normalized fold change after GAPDH calibration / Cyclin D1, normalized fold change after GAPDH calibration / Cyclin D3, normalized fold change after GAPDH calibration / Cyclin E, normalized fold change after GAPDH calibration / Myt 1, normalized fold change after GAPDH calibration / P-Wee1, normalized fold change after GAPDH calibration / P-cdc2, normalized fold change after GAPDH calibration / P-histone H3, normalized fold change after GAPDH calibration / p21, normalized fold change after GAPDH calibration / p27, normalized fold change after GAPDH calibration: 48 hrs., 0 μM = 100
# Method: Cells were plated at 25–30% confluence when maintained in complete media. When the cells required DHT tretment and media replacement to charcoal stripped serum media (CSSM) they were plated at 35–40% confluence. Bergamottin is dissolved in DMSO (vehicle control) and the amount of DMSO at each treatment group was kept constant. After the completion of the treatment cells were washed in phosphate buffer (PBS) containing 2mMEDTA and 2mM EGTA and lysed in RIPA buffer (50 mM TRIS, 150 mM NaCl, 1% NP40, 0.5% sodium deoxycholate, 0.1% SDS, 2mM EDTA, 2mM EGTA) supplemented with protease and phosphatase inhibitors for total protein isolation. Protein estimation was performed using micro BCA assay and equal protein amponts were loaded on SDS-PAGE gels for western analysis. GAPDH was used as an internal control for total protein. Infrared fluorescent-labeled secondary antibodies were used for detection using Odyssey CLx. The bands were quantified using Odyssey software, which calculates pixel density and automatically takes an area adjacent to each band for background corrections. […]
# [2] = system: PARP cleavage in LNCaP cells; assay: Western blot of PARP cleavage, LNCaP; conditions: 5 and 10 μM for 96 hrs. and 20 μM for 48 hrs.
# Method: (§1) Cells were plated at 25–30% confluence when maintained in complete media. When the cells required DHT tretment and media replacement to charcoal stripped serum media (CSSM) they were plated at 35–40% confluence. Bergamottin is dissolved in DMSO (vehicle control) and the amount of DMSO at each treatment group was kept constant. After the completion of the treatment cells were washed in phosphate buffer (PBS) containing 2mMEDTA and 2mM EGTA and lysed in RIPA buffer (50 mM TRIS, 150 mM NaCl, 1% NP40, 0.5% sodium deoxycholate, 0.1% SDS, 2mM EDTA, 2mM EGTA) supplemented with protease and phosphatase inhibitors for total protein isolation. Protein estimation was performed using micro BCA assay and equal protein amponts were loaded on SDS-PAGE gels for western analysis. GAPDH was used as an internal control for total protein. Infrared fluorescent-labeled secondary antibodies were used for detection using Odyssey CLx. The bands were quantified using Odyssey software, which calculates pixel density and automatically takes an area adjacent to each band for background corrections.
# Cells were plated in complete media without antibiotics on poly D-lysine-coated plates (80,000 cells per 6 well). […]
# [3] = system: total AR in LNCaP cells; assay: Western blotting of total AR, LNCaP; conditions: bergamottin 10μM, CSSM
# Method: as §1
# [4] = system: RWPE1 cells (non transformed prostate epithelium); assay: MTT growth assay, RWPE1
# Method: Growth of the cells was measured using a MTT assay. Cells were plated (2000 cells/ 96 well or 13,000 cells/ 24 well) for 48 hours then treated with bergamottin for 4 days (96 hours) and then incubated with MTT (3-(4,5-Dimethylthiazol- 2-yl)-2,5-Diphenyltetrazolium bromide) (4 mg/ml) for 2 h. at 37°C. DMSO (vehicle control for bergamottin) levels were compensated in each bergamottin treatment group. Cells were centrifuged at 2000 g for 10 min and the supernatant was discarded. The cell pellet was dissolved in 100/500 μl of DMSO depending on the well size. A plate reader was used to read the absorption at 540 nm. Experiments were performed in octuplet/quadruplet and repeated at least three times.
smiles,measurement,setting,value
CC(C)=CCC/C(C)=C/COc1c2ccoc2cc2oc(=O)ccc12 [bergamottin],"CDK2, normalized fold change after GAPDH calibration",[1]; Bergamottin 20 μM,63
same,"CDK4, normalized fold change after GAPDH calibration",[1]; Bergamottin 20 μM,90
same,"CDK6, normalized fold change after GAPDH calibration",[1]; Bergamottin 20 μM,108
same,"Cyclin A, normalized fold change after GAPDH calibration",[1]; Bergamottin 20 μM,86
same,"Cyclin B1, normalized fold change after GAPDH calibration",[1]; Bergamottin 20 μM,52
same,"Cyclin D1, normalized fold change after GAPDH calibration",[1]; Bergamottin 20 μM,106
same,"Cyclin D3, normalized fold change after GAPDH calibration",[1]; Bergamottin 20 μM,55
same,"Cyclin E, normalized fold change after GAPDH calibration",[1]; Bergamottin 20 μM,120
same,"Myt 1, normalized fold change after GAPDH calibration",[1]; Bergamottin 20 μM,259
same,"P-Wee1, normalized fold change after GAPDH calibration",[1]; Bergamottin 20 μM,80
same,"P-cdc2, normalized fold change after GAPDH calibration",[1]; Bergamottin 20 μM,14
same,"P-histone H3, normalized fold change after GAPDH calibration",[1]; Bergamottin 20 μM,130
same,"p21, normalized fold change after GAPDH calibration",[1]; Bergamottin 20 μM,139
same,"p27, normalized fold change after GAPDH calibration",[1]; Bergamottin 20 μM,158
same,"CDK2, normalized fold change after GAPDH calibration",[1]; Bergamottin 30 μM,77
same,"CDK4, normalized fold change after GAPDH calibration",[1]; Bergamottin 30 μM,81
same,"CDK6, normalized fold change after GAPDH calibration",[1]; Bergamottin 30 μM,98
same,"Cyclin A, normalized fold change after GAPDH calibration",[1]; Bergamottin 30 μM,58
same,"Cyclin B1, normalized fold change after GAPDH calibration",[1]; Bergamottin 30 μM,42
same,"Cyclin D1, normalized fold change after GAPDH calibration",[1]; Bergamottin 30 μM,110
same,"Cyclin D3, normalized fold change after GAPDH calibration",[1]; Bergamottin 30 μM,49
same,"Cyclin E, normalized fold change after GAPDH calibration",[1]; Bergamottin 30 μM,87
same,"Myt 1, normalized fold change after GAPDH calibration",[1]; Bergamottin 30 μM,451
same,"P-Wee1, normalized fold change after GAPDH calibration",[1]; Bergamottin 30 μM,87
same,"P-cdc2, normalized fold change after GAPDH calibration",[1]; Bergamottin 30 μM,15
same,"P-histone H3, normalized fold change after GAPDH calibration",[1]; Bergamottin 30 μM,152
same,"p21, normalized fold change after GAPDH calibration",[1]; Bergamottin 30 μM,126
same,"p27, normalized fold change after GAPDH calibration",[1]; Bergamottin 30 μM,143
same,CDK4 level (western blot),"[1]; low dose 5 and 10 μM, 96 hrs.",did not observe any significant change
same,CDK6 level (western blot),"[1]; low dose 5 and 10 μM, 96 hrs.",did not observe any significant change
same,cdc-2 phosphorylation (western blot),"[1]; low dose 5 and 10 μM, 96 hrs.",Decreased cdc-2 phosphorylation
same,cyclin B1 level (western blot),"[1]; low dose 5 and 10 μM, 96 hrs.",lower
same,cyclin D3 level (western blot),"[1]; low dose 5 and 10 μM, 96 hrs.",lower
same,PARP cleavage,[2],showed apoptosis (cleaved PARP)
same,downregulation of total AR levels,[3],50%
same,inhibition at 10 µM,"[4]; Homo sapiens, RWPE-1, RWPE1, 10μM",60%
same,effect on growth at lower concentration,"[4]; RWPE1, lower concentration",does not effect growth
